Read-outs that look alike come from different tables or passages of the source.
Legend:
PanC1 = assay: Cell proliferation assay, Alamar Blue, PanC1; format: cell-based; details: Homo sapiens, PANC-1; Table 19b; read-out: IC50 PanC1
Procedure: (§1) A representative cell-proliferation assay protocol using Alamar Blue dye (stored at 4° C., use 20 ul per well) is described hereafter.
(§2) c. Plate 4,000-5,000 cells per well in 100 μl of medium and seed into a 96-well plate according to the following plate layout. Add cell culture medium only to wells B10 to B12. Wells B1 to B9 have cells but no compound added.
(§3) d. Add 100 μl of 2× drug dilution to each well in a concentration shown in the plate layout above. At the same time, add 100 μl of media into the control wells (wells B10 to B12). Total volume is 200 μl/well.
(§4) e. Incubate four (4) days at 37° C., 5% CO2 in a humidified incubator.
(§5) f. Add 20 μl Alamar Blue reagent to each well.
(§6) g. Incubate for four (4) hours at 37° C., 5% CO2 in a humidified incubator.
(§7) h. Record fluorescence at an excitation wavelength of 544 nm and emission wavelength of 590 nm using a microplate reader.
(§8) In the assays, cells are cultured with a test compound for approximately four days, the dye then is added to the cells and fluorescence of […] dye is detected after approximately four hours. Different types of cells can be utilized in the assays (e.g., HCT-116 human colorectal carcinoma cells, PC-3 human prostatic cancer cells and MiaPaca human pancreatic carcinoma cells). Anti-proliferative effects of representative compounds are provided hereafter.

BxPC3 = assay: Cell proliferation assay, Alamar Blue, BxPC3; format: cell-based; details: Homo sapiens, BXPC-3
Procedure: as §2, §3, §4, §5, §6, §7, §8

HT29 = assay: Cell proliferation assay, Alamar Blue, HT29; format: cell-based; details: Homo sapiens, HT-29
Procedure: as §2, §3, §4, §5, §6, §7, §8

[1] = Pharmacokinetics in ICR mice after IV and PO dose; format: in vivo
Hs578T = assay: Cell proliferation assay, Alamar Blue, Hs578T; format: cell-based; details: Homo sapiens, Hs-578T
H1299 = assay: Cell proliferation assay, Alamar Blue, H1299; format: cell-based; details: Homo sapiens, NCI-H1299
Procedure: as §2, §3, §4, §5, §6, §7, §8

[2] = tested on: HCT-116 human colorectal carcinoma cells; assay: Cell proliferation assay, Alamar Blue, HCT-116; format: cell-based;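 also: cells exposed to compound for about 4 days, then Alamar Blue added and fluorescence read after about 4 h, medium-only wells as control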
[3] = tested on: PC-3 human prostatic cancer cells; assay: Cell proliferation assay, Alamar Blue, PC-3; format: cell-based
Procedure: as §1, §2, §3, §4, §5, §6, §7, §8

[4] = tested on: MiaPaca human pancreatic carcinoma cells; assay: Cell proliferation assay, Alamar Blue, MiaPaca; format: cell-based
Procedure: as §1, §2, §3, §4, §5, §6, §7, §8

A549 = assay: Cell proliferation assay, Alamar Blue, A549; format: cell-based; details: Homo sapiens, Table 16
Procedure: as §2, §3, §4, §5, §6, §7, §8

Jurkat = assay: Cell proliferation assay, Alamar Blue, Jurkat; format: cell-based; details: Homo sapiens, Table 16;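 also: cells exposed to compound for about 4 days at 37 °C, then Alamar Blue added and fluorescence read after about 4 h, controls given medium without drug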
[5] = HCT-116, Table 16, first HCT-116 column
[6] = HCT-116, Table 16, second HCT-116 column

SMILES | IC50 (PanC1) [µM] | IC50 (BxPC3; Table 19b) [µM] | IC50 (Hs578T; Table 16) [µM] | IC50 (H1299; Table 16) [µM] | IC50 ([3]; Table 16, read-out: IC50 PC3) [µM] | also measured
O=C(O)c1ccc2c(c1)nc(NCCc1cccc(F)c1)c1ccncc12 [drawing 1220] | 28.2 | 3.29 | – | – | – | IC50 (HT29; Table 19b): 31.3 µM
C#Cc1cccc(Nc2nc3cc(C(=O)O)ccc3c3cncnc23)c1 [drawing 1347] | – | – | – | – | – | Kel ([1]; PO, 24.5 mg/kg): 0.0594 h⁻¹; AUC(0-inf) ([1]; mouse, plasma, IV, 3.4 mg/kg): 4900 ng·h/mL; AUC(0-t) ([1]; mouse, plasma, IV, 3.4 mg/kg): 4810 ng·h/mL; Cmax ([1]; mouse, plasma, IV, 3.4 mg/kg): 4740 ng/mL; Vd ([1]; mouse, plasma, IV, 3.4 mg/kg): 4.9 L/kg; AUC(0-inf) ([1]; mouse, plasma, PO, 24.5 mg/kg): 10900 ng·h/mL; AUC(0-t) ([1]; mouse, plasma, PO, 24.5 mg/kg): 9120 ng·h/mL; Cmax ([1]; mouse, plasma, PO, 24.5 mg/kg): 1600 ng/mL; Tmax ([1]; mouse, plasma, PO, 24.5 mg/kg): 30 min
c1ccc(Nc2nc3cc(-c4nnn[nH]4)ccc3c3sccc23)cc1 | – | – | 21.8 | 11.7 | 20 | IC50 [2, 5]: > 10 µM
CN(C)CCNc1nc2cc(C(=O)O)ccc2c2cnc(NC3CC3)nc12 [drawing 1293] | > 50 | 13 | – | – | – | –
COC(=O)c1ccc2c(c1)nc(NC1CC1)c1nc(SC)ncc12 [drawing 1292] | > 50 | 7.39 | – | – | – | –
O=C(O)c1ccc2c(c1)nc(NCCc1cccc(Cl)c1)c1ccncc12 [drawing 1219] | 28.1 | 24.3 | – | – | – | IC50 (HT29; Table 19b): 34 µM
CCCNc1ncc2c(n1)c(NC1CC1)nc1cc(C(=O)O)ccc12 [drawing 1296] | 1.33 | 5.58 | – | – | – | –
COc1cccc(Nc2nc3cc(C(=O)O)ccc3c3scnc23)c1 | – | – | > 50 | 18.5 | > 50 | IC50 ([4]; MIA PaCa-2, Table 16): > 10 µM; IC50 (HT29; Table 16): > 50 µM; IC50 (A549): > 50 µM; IC50 [2, 6]: > 10 µM
O=C(O)c1ccc2c(c1)nc(NC1CC1)c1nc(Nc3ccccc3)ncc12 [drawing 1269] | 4.02 | 3.92 | – | – | – | –
O=C(O)c1ccc2c(c1)nc(NC1CC1)c1ccncc12 [drawing 1290] | > 50 | 49 | – | – | – | –
C#Cc1cccc(Nc2nc3cc(C(=O)O)ccc3c3sccc23)c1 [drawing 938] | – | – | 9.96 | 16.9 | 17.8 | IC50 ([4]; MIA PaCa-2, Table 16): > 10 µM; IC50 (HT29; Table 16): 23.1 µM; IC50 (A549): 27.7 µM
O=C(O)c1ccc2c(c1)nc(NCCCc1ccccc1)c1ccncc12 [drawing 1221] | 34.4 | 23.4 | – | – | – | IC50 (HT29; Table 19b): 16.4 µM
Fc1cccc(Nc2nc3cc(-c4nnn[nH]4)ccc3c3sccc23)c1 | – | – | 3.37 | 3.05 | 2.89 | IC50 ([4]; MIA PaCa-2, Table 16): 9.55 µM
O=C(O)c1ccc2c(c1)nc(Nc1cncc(C3CC3)c1)c1ccncc12 | > 50 | 38.1 | – | – | – | –
COC(=O)c1ccc2c(c1)nc(NC1CC1)c1nc(SCc3ccccc3Cl)ncc12 [drawing 1262] | 3.48 | 2.12 | – | – | – | –
Cc1cc(Nc2ncc3c(n2)c(Nc2ccc(F)c(Cl)c2)nc2cc(C(=O)O)ccc23)[nH]n1 [drawing 1286] | > 50 | > 50 | – | – | – | –
CN(C)CCNc1nc2cc(C(=O)O)ccc2c2sccc12 | – | – | > 50 | 8.9 | > 50 | IC50 [2, 5]: > 10 µM
N#Cc1cccc(Nc2nc3cc(C(=O)O)ccc3c3sccc23)c1 | – | – | 12.3 | 19.1 | > 50 | IC50 ([4]; MIA PaCa-2, Table 16): > 10 µM; IC50 (HT29; Table 16): 16.6 µM; IC50 (A549): 16 µM

SMILES | IC50 (PanC1) [µM] | IC50 (BxPC3; Table 19b) [µM] | IC50 (Hs578T; Table 16) [µM] | IC50 (H1299; Table 16) [µM] | IC50 ([3]; Table 16, read-out: IC50 PC3) [µM] | also measured
C#Cc1cccc(Nc2nc3cc(C(=O)O)ccc3c3cnc(NCC4CC4)nc23)c1 [drawing 1257] | 1.3 | 0.82 | – | – | – | –
Nc1ncc2c(n1)c(NC1CC1)nc1cc(C(=O)O)ccc12 [drawing 1295] | > 50 | 43.8 | – | – | – | –
c1ccc(Nc2nc3cc(-c4nnc[nH]4)ccc3c3sccc23)cc1 | – | – | 5.5 | 17.8 | 7.26 | IC50 (BxPC3; Table 16): 1.97 µM; IC50 (Jurkat): 6.26 µM; IC50 (A549): 14.4 µM; IC50 [2, 5]: 5 µM; IC50 [2, 6]: 7.6 µM
O=C(O)c1ccc2c(c1)nc(NC1CC1)c1nc(NCc3ccccc3)ncc12 [drawing 1268] | 25.8 | 10.9 | – | – | – | –
O=C(O)c1ccc2c(c1)nc(N1CCOCC1)c1nc(NC3CC3)ncc12 [drawing 1278] | > 50 | > 50 | – | – | – | –
NS(=O)(=O)c1cccc(Nc2nc3cc(C(=O)O)ccc3c3sccc23)c1 | – | – | 11 | 9.9 | 44.9 | IC50 ([4]; MIA PaCa-2, Table 16): > 10 µM; IC50 (HT29; Table 16): 4.6 µM; IC50 (A549): 7.6 µM; IC50 [2, 6]: > 10 µM
CCOc1ncc2c(n1)c(NC1CC1)nc1cc(C(=O)O)ccc12 [drawing 1266] | > 50 | 48.9 | – | – | – | –
C#Cc1cccc(Nc2nc3cc(C(=O)O)ccc3c3cnc(NCC4CCCO4)nc23)c1 (centres unmarked) [drawing 1256] | 6.66 | 1.2 | – | – | – | –
O=C(O)c1ccc2c(c1)nc(Nc1ccccc1)c1ccsc12 | – | – | 6.38 | 4.39 | 9.09 | IC50 ([4]; MIA PaCa-2, Table 16): > 10 µM; IC50 (Jurkat): 6.12 µM; IC50 [2, 5]: > 10 µM; IC50 [2, 6]: > 10 µM
CNC(=O)c1cccc(Nc2nc3cc(-c4nnn[nH]4)ccc3c3sccc23)c1 | – | – | 3.01 | 4.01 | 2.79 | IC50 ([4]; MIA PaCa-2, Table 16): > 10 µM; IC50 (Jurkat): 4.22 µM; IC50 [2, 6]: > 10 µM
O=C(O)c1ccc2c(c1)nc(Nc1cc(Cl)ccc1F)c1ccsc12 | – | – | – | 17.5 | > 50 | IC50 ([4]; MIA PaCa-2, Table 16): > 10 µM; IC50 (HT29; Table 16): > 50 µM; IC50 (A549): 31.1 µM; IC50 [2, 6]: > 10 µM
Clc1cccc(Nc2nc3cc(-c4nnn[nH]4)ccc3c3sccc23)c1 | – | – | 5.23 | 15.2 | 12 | IC50 ([4]; MIA PaCa-2, Table 16): > 10 µM; IC50 (Jurkat): 8.89 µM
O=C(O)c1ccc2c(c1)nc(NCCc1ccccc1)c1ccncc12 [drawing 1007] | – | – | – | – | – | IC50 ([4]; MIA PaCa-2, Table 18): 5.08 µM; IC50 (Hs578T; Table 18): 16.5 µM; IC50 (H1299; Table 18): 21 µM; IC50 ([2]; HCT-116, Table 18): > 10 µM; IC50 ([3]; Table 18, read-out: IC50 PC3): 23.6 µM
O=C(O)c1ccc2c(c1)nc(NCc1ccccc1)c1nc(NC3CC3)ncc12 [drawing 1277] | 19.1 | 22.3 | – | – | – | –
O=C(O)c1ccc2c(c1)nc(NC1CC1)c1nc(NC3CC3)ncc12 [drawing 1267] | 2.6 | 2.59 | – | – | – | –
O=C(O)c1ccc2c(c1)nc(Nc1cccc(Cl)c1)c1ccsc12 | – | – | 9.7 | 14.3 | 16.7 | IC50 ([4]; MIA PaCa-2, Table 16): 9.82 µM; IC50 (HT29; Table 16): 5.36 µM; IC50 (A549): 11.7 µM
O=C(O)c1ccc2c(c1)nc(NCc1cccnc1)c1nc(NC3CC3)ncc12 [drawing 1276] | > 50 | > 50 | – | – | – | –
O=C(O)c1ccc2c(c1)nc(NCCc1ccccc1)c1ccncc12 [drawing 1206] | – | – | – | – | – | IC50 (HT29; Table 19b): 46.9 µM
